Reference: patent US9447040B2, “Tricyclic compounds, compositions comprising them and uses thereof” (YISSUM RESEARCH DEVELOPMENT COMPANY OF THE HEBREW …, priority 2011, dated 2016)
Where “and” joins values, the source holds several entries; their conditions need not be identical. Equal entries are not always repeated. Entries after “also recorded” stand apart in the source; their conditions may differ.

Experiments:
[1] = target: protein kinase CDC42-binding-protein-kinase-alpha (CDC42BPA or MRCKA) (Homo sapiens, UniProt Q5VT25); experiment: screening against 191 different protein kinases; type: biochemical; conditions: screened against 191 different protein kinases
[2] = system: nap WAT; experiment: Intra-nap fat-pad injection to Psammomys on high-fat diet, nap WAT; type: in vivo
Description: Ten 2-month old female pasmmomys were subjected to high-fat diet for 5 weeks prior to commencement of experiment.
0.1 ml vehicle (2.3% sodium decanoate (C10, Sigma, C4151), 2.3% sodium dodecanoate (C12, Sigma, L9755), 10% Solutol HS 15 (BASF, cat#06466701), 40% Propylene-Glycol (Sigma, P4347) and 45% Triacetin (Aldrich, cat#525073))
0.1 ml MTK-012 (concentration of 4 mg/ml in above vehicle).
0.1 ml MTK-013 (concentration of 4 mg/ml in above vehicle).
Intra nap fat-pad injections of each composition were administered to animals in each treatment groups (3, 3, and 4 animals in each treatment group respectively), twice a week for 2 weeks, while on high-fat diet. All animals were sacrificed after 4 days from last injection.
Table 1 below provides the results of nap WAT weight after 4 days from treatment.

[3] = system: abdominal adipose tissue; experiment: Intraperitoneal (i.p.) injection to mice, gross pathology and abdominal fat; type: in vivo
Description: 42 wks old male mice (35-42 g body wt.) were i.p. injected with either vehicle (=Control, 10 mice) or with MTK-012 dissolved in that vehicle (10 mice).
Vehicle composition: aqueous solution of 4% Tween20 (Sigma, P7949) and 20% Propylene-Glycol (Sigma, P4347).
MTK-012 was dissolved in vehicle composition at a final concentration of 5 mg/ml.
The mice were initially (t=0) injected a dose of 20 mg/kg, or the equivalent volume of vehicle to the controls (solid arrow in FIG. 1). Three weeks later the mice were injected a double dose of 40 mg/kg of MTK-012 or 40 mg/kg of vehicle (broken arrow in FIG. 1).
Body weight was measured once a week; the results are shown in FIG. 1 and expressed as the % change in body weight relative to the body weight on day 0.
At t=6 wks the animals were sacrificed and dissected for gross pathology.

[4] = system: s.c. adipose tissue; experiment: Single subcutaneous (s.c.) injection to rats, s.c. fat; type: in vivo, SD male rats; conditions: single s.c. 25 mg/kg at 5 sites on left side, examined after 3 weeks
Description: SD male rats of about 400 g body weight were s.c. injected once (t=0) following light anesthesia with Ketamine-Xylazine.
MTK-012, at a final concentration of 10 mg/ml, was dissolved in a vehicle containing: 2.3% sodium decanoate (C10, Sigma, C4151), 2.3% sodium dodecanoate (C12, Sigma, L9755), 10% Solutol HS 15 (BASF, cat#06466701), 40% Propylene-Glycol (Sigma, P4347) and 45% Triacetin (Aldrich, cat#525073).
The injection of 1 ml MTK-012 (=25 mg/kg) was performed as follows: the left side of the rats body was shaved and s.c. injections, 0.2 ml each, were administered at 5 sites, equally distributed along the left side of the rats. The rats were sacrificed after 3 weeks and inner part of their skin was examined. It is evident that the s.c. adipose tissue was reduced (visibly shown) in the treated rats (FIGS. 3B and 3D), as manifested by the exposure of the underneath blood vessels, as compared with the same anatomical area in FIGS. 3A and 3C. It should be noted that although the injection was performed unilaterally, the effect expand to the entire subcutis.

Chain of protein kinase CDC42-binding-protein-kinase-alpha (CDC42BPA or MRCKA) (Q5VT25 whole entry): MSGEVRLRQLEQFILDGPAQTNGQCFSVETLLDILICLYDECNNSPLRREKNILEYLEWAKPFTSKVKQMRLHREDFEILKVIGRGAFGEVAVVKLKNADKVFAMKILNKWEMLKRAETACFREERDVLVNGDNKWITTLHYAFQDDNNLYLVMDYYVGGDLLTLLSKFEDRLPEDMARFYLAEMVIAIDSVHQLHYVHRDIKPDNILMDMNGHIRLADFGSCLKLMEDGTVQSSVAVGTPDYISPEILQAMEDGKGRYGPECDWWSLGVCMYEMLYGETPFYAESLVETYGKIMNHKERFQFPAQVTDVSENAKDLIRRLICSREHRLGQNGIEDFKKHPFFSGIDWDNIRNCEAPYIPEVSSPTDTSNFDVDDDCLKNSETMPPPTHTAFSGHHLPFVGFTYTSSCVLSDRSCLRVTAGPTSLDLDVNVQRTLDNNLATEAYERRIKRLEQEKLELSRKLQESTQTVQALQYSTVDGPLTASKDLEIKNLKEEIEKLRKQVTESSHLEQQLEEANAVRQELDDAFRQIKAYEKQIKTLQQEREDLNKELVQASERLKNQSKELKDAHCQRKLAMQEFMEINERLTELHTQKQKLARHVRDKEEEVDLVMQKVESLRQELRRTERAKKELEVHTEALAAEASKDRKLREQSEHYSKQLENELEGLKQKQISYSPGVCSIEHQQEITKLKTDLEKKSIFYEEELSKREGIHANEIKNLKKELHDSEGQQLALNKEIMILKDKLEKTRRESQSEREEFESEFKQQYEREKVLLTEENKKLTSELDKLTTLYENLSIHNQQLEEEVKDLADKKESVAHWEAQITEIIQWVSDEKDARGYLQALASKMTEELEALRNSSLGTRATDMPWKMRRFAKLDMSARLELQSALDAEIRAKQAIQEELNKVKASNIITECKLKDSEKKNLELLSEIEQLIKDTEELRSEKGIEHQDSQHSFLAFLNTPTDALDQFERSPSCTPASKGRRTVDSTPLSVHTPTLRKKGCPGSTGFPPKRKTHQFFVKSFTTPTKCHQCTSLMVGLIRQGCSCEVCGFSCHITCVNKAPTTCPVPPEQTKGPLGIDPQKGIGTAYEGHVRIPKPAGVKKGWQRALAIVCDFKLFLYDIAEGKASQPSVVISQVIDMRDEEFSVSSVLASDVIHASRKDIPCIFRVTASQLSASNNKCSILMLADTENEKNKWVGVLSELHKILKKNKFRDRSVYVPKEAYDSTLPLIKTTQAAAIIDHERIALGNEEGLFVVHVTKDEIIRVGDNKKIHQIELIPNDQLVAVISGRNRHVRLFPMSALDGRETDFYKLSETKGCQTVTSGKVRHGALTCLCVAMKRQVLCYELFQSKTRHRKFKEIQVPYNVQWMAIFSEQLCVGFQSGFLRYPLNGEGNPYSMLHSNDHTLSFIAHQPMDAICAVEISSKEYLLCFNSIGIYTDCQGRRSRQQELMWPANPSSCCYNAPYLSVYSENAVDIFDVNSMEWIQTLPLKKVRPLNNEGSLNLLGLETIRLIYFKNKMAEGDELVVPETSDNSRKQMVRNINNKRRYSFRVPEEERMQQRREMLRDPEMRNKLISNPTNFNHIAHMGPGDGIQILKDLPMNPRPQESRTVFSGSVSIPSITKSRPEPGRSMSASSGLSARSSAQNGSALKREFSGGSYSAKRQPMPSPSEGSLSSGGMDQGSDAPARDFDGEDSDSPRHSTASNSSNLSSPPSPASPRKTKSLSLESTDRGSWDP

Structure (SMILES): C[N+](C)(C)CCCCCn1c2ccc(Br)cc2c2cc(Br)ccc21.[Cl-] [MTK-012, 5-(3,6-dibromo-9H-carbazol-9-yl)-N,N,N-trimethylpentan-1-aminium chloride]
- inhibition of protein kinase CDC42BPA (MRCKA) in screen [1]: significantly selective inhibition
- Nap WAT (g), single animals ([2]; 0.1 ml of 4 mg/ml intra nap fat-pad, twice a week for 2 weeks, 4 days after last injection): 3.7 g and 4.1 g and 4.6 g and 3.0 g
- Nap WAT Average (g) ± SEM ([2]; 0.1 ml of 4 mg/ml intra nap fat-pad, twice a week for 2 weeks, 4 days after last injection, vehicle 5.30 ± 0.21): 3.85 ± 0.34 g
- reduction in WAT as compared with vehicle ([2]; nap WAT weight 4 days after treatment): significant reduction
- general condition of treated animals ([3]; 42 wks old male mice, i.p. 20 mg/kg at t=0 and 40 mg/kg three weeks later): well and active, similar to the controls
- abdominal adipose tissue / abdominal fat-mass ([3]; mice at t=6 wks, i.p. 20 mg/kg then 40 mg/kg, vs vehicle control): reduction in abdominal fat-mass; also recorded: ablation of the abdominal adipose tissue
- gross pathology, changes other than adipose tissue ([3]; mice sacrificed at t=6 wks, i.p. 20 mg/kg then 40 mg/kg): No apparent change
- s.c. adipose tissue (subcutaneous fat) [4]: reduction in subcutaneous fat; also recorded: reduced
